Laboratory results reported in US6417177B1, “Chloroquine derivatives for the treatment of Parkinson's disease” (Alpha Research Group, LLC, priority 1999, dated 2002).

What was measured:
[1] = in vitro comparison of chloroquine phosphate enantiomers for binding to neuromelanin; conditions: compared between enantiomers of chloroquine phosphate
Protocol: (§1) Enantiomers of chloroquine phosphate were isolated according to the procedure of Stalcup, A. M. et al. (1996), Analytical Chemistry 68:2248-50. Comparisons of these enantiomers with respect to ability to inhibit diamine oxidase and bind to neuromelanin are performed in vitro.

diamine oxidase = target: T1, diamine oxidase (Homo sapiens, UniProt P19801); assay: in vitro comparison of chloroquine phosphate enantiomers for inhibition of diamine oxidase; format: biochemical; conditions: compared between enantiomers of chloroquine phosphate
T1 sequence (P19801 20-751): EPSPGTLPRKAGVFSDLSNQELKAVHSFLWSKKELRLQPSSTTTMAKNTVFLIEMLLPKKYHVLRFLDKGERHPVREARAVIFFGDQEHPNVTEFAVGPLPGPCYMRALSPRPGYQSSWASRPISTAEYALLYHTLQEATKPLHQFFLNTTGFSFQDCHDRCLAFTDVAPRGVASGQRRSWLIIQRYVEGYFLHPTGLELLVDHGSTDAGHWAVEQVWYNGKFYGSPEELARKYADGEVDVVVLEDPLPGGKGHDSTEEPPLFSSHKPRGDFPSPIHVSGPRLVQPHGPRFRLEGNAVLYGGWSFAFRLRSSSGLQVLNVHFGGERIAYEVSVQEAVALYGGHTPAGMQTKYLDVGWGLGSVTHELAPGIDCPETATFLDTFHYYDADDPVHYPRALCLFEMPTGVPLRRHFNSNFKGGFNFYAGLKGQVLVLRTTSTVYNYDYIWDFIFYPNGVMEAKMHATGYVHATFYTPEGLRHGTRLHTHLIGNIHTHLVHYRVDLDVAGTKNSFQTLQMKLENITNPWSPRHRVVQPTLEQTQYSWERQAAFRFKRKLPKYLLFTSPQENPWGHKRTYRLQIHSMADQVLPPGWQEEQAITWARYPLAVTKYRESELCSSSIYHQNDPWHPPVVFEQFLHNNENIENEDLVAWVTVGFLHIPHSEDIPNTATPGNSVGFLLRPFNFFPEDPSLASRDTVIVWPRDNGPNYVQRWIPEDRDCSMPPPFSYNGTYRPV
Protocol: as §1

Parkinson's Disease = conditions: cited from earlier work

Compound | ability to bind neuromelanin [1] | ability to inhibit diamine oxidase (diamine oxidase) | delay of the need to commence L-DOPA treatment (Parkinson's Disease; American researchers) | increase in patient mortality (Parkinson's Disease; co-administered with L-DOPA, compared to the group treated with L-DOPA only) [%] | neural protection (Parkinson's Disease; two-year patient follow-up examinations)
CCN(CC)CCCC(C)Nc1ccnc2cc(Cl)ccc12 (single isomer, unassigned) [active enantiomer] | significantly enhanced ability | significantly enhanced ability |  |  | 
C#CCN(C)[C@H](C)Cc1ccccc1 [Deprenyl] |  |  | up to nine months | 60 | no neural protection was found
